No end group written: not given here.
Columns and labels:
human PTH-1 receptors [1] = molecular target: T1, human PTH-1 receptors (Homo sapiens, UniProt Q03431); assay: AC activation in cells that express fewer human PTH-1 receptors (LLC-PK1 subclones, SaOS-2); type: cell-based; details: LLC-PKI or SaOS-2 osteosarcoma cells, 10,000-100,000 receptors per cell; data not shown
T1 construct: expressed in transfected cells
T1 sequence (Q03431 27-593): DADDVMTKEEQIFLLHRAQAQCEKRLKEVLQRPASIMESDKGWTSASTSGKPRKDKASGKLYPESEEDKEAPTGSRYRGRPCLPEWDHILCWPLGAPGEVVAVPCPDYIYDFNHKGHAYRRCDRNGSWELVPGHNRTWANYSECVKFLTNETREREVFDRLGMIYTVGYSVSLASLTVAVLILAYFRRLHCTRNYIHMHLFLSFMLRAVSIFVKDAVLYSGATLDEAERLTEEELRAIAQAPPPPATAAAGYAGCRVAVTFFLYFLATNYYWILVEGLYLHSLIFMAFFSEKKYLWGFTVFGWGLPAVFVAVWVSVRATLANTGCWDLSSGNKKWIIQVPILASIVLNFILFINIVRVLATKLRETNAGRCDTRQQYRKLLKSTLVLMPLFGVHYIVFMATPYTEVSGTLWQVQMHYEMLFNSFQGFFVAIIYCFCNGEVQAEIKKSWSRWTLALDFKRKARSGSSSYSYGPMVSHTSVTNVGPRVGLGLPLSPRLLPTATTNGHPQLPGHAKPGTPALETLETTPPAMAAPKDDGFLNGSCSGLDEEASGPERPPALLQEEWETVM
Procedure: Intracellular cAMP accumulation, PLC activation and PTHR binding affinity were measured as previously reported (Bringhurst, F. R., et al., Endocrinology 132(5):2090-2098 (1993); Guo, J., et al., Endocrinology 136(9):3884-3891 (1995)). Intracellular cAMP accumulation was measured in extracts of cells that were exposed to human PTH peptides in the presence of isobutylmethyxanthine (IBMX, 1 mM) at 37° C. for 15 min. After terminating the reactions by aspiration and freezing in liquid nitrogen, cell monolayers were extracted with 50 mM HCl and cAMP was measured using a radioimmunoassay kit (Dupont-New England Nuclear, Boston, Mass.).
The possibility that the [Gly^1,Arg^19]hPTH-(1-28) peptide might be useful, especially in rodent models, as a signal-selective analog to dissociate AC from PLC signaling via the PTH-1 receptor was examined further using the EW5 subclone of LLC-PK1 cells that stably expresses rat PTH-1 receptors (Guo, J., et al., Endocrinology 136(9):3884-3891 (1995)). […]

human PTH-1 receptors [2] = molecular target: T1, human PTH-1 receptors; assay: PLC activation (total inositol polyphosphates) in transiently transfected HEK-293 cells; type: cell-based; details: 1000 nM peptide, mean ± SEM
Procedure: HKRK B7 or EW5 cells (32), subclones of LLC-PKI renal epithelial cells that stably express human or rat PTH-1 receptors (950,000 and 320,000 receptors/cell, respectively), were maintained under 5% CO2 in air in Dulbecco's modified essential medium containing 7% fetal bovine serum (FBS) and 1% penicillin/streptomycin (GIBCO-BRL, Grand Island, N.Y.). HEK-293 and COS-7 cells were cultured similarly, except that 10% FBS was used in the medium. Cells were seeded into 24-well plates two days before assay at a density of 2-2.5×10^5 cells/well (HKRK B7 or EW 5 cells) or 6×10^5 cells/well (in 6-well plates) (HEK-293 cells). In experiments involving HEK-293 cells, DNA transfections were performed 24 hr after plating and inositol radiolabel was added 24 hr thereafter (see below). COS-7 cell transfections were performed as previously described (Gardella, T. J., et al., Endocrinology 132(5):2024-2030 (1993))
PLC was activated by PTH agonists in the presence of 30 mM LiCl at 37° C. for 30 min after 16 hr of labeling with [^3H]myo-inositol (3 uCi/ml) in serum-free medium containing 0.1% bovine serum albumin. […]
Total inositol polyphosphate produced in response to 1000 nM of the peptides shown were measured in HEK-293 cells that transiently expressed human PTH-1 receptors. Results are expressed as means±SEMs of the % of basal activity for triplicate determinations.

membrane-bound PKCs = details: osteoblast-like ROS 17/2 cells; Neugebauer et al. 1995; cited from earlier work

Row | fold reduction of AC activation relative to hPTH-(1-34) (human PTH-1 receptors [1]) | PLC Activity (% Basal) (human PTH-1 receptors [2]) | Substance | stimulation of activity of membrane-bound PKCs (membrane-bound PKCs)
1 | 10-20 fold |  | GVSEIQLMHNLGKHLNSMRRVEWLRKKL [[Gly^1,Arg^19]hPTH-(1-28)] | 
2 |  | 305 ± 20 | SVSEIQLMHNLGKHLNSMERVEWLRKKL-NH2 [hPTH-(1-28)] | incapable of stimulating

— patent publication US7479478B2, “Human parathyroid hormone modifications, preparation and use” (The General Hospital Corporation, priority 1998, dated 2009)
